Assay results taken from BindingDB's records for doi:10.1021/jm0607451 (Wyeth Research, 2006).
pIC50: −log10 of the molar value.

Molecular target: Pepsin A-4 (Homo sapiens, UniProt P0DJD7)
Experiment: FRET-based Peptide Cleavage Assay
Conditions: pH 4.5; 22 °C

Pepsin A-4, sequence (P0DJD7 whole entry): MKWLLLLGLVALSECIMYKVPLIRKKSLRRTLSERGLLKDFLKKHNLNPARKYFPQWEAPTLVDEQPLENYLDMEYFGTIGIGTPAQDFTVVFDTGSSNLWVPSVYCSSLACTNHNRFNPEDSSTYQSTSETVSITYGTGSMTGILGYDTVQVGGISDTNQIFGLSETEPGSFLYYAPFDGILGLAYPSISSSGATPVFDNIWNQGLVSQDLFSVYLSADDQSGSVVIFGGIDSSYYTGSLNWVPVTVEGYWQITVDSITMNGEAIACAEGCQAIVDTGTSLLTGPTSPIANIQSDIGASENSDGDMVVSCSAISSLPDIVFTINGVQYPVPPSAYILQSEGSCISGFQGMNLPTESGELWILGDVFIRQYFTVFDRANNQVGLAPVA

pIC50 | Compound
< 4.30 | CC(=O)c1ccc(Oc2ccc(-c3ccc(-c4ccccc4Cl)n3CC(=O)NC(=N)N)cc2)cc1 [2-[2-(2-chlorophenyl)-5-[4-(4-acetylphenoxy)phenyl]-1H-pyrrol-1-yl]-N-(diaminomethylidene)acetamide]
< 4.30 | NC(N)=NC(=O)Cn1c(-c2ccccc2)ccc1C12CC3CC(CC(C3)C1)C2 [2-[2-(adamantan-1-yl)-5-phenyl-1H-pyrrol-1-yl]-N-(diaminomethylidene)acetamide]
< 4.30 | N/C(=N/C(=O)Cn1c(-c2ccccc2)ccc1C12CC3CC(CC(C3)C1)C2)NCCCO [2-[2-(adamantan-1-yl)-5-phenyl-1H-pyrrol-1-yl]-N-[(1Z)-amino[(3-hydroxypropyl)amino]methylidene]acetamide]
< 4.30 | CCCOc1ccc(-c2ccc(-c3ccccc3Cl)n2CC(=O)NC(=N)NCCCO)cc1 [N-[(1Z)-amino[(3-hydroxypropyl)amino]methylidene]-2-[2-(2-chlorophenyl)-5-(4-propoxyphenyl)-1H-pyrrol-1-yl]acetamide]
